Assay: recombinant UMI read abundance after kanamycin selection (control-corrected) (log10(CPM+1)); higher = more efficient recombination; extreme values may be limits of the assay; sequences stand for … in AGTGCAGAGAAAATCGGCCAGTTTTCTCTGCCTGCAGTCCGCATGCCGTGGGACCCCTTGGGTTCTAACCTGTTGCCTAGATTTATGCAGCGGACTGCCTTTCTCCCAAAGTGATAAACCGG…AGGTTGGTTTCACT; site = the 11-nt donor
Procedure, shortened: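 Values, expressed as log10(CPM+1), derive from recombinant UMI counts converted to CPM, averaged across replicates and scaled by control-derived factors. Plating was with IPTG (0.07 mM) plus kanamycin or unselected, two replicates each. The screen pooled donor and donor-binding-loop pairs for the IS621 bridge recombinase in Escherichia coli.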
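Further: IS621 bridge recombinase in Escherichia coli cells against a fixed T5 target plasmid.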

Going from “CCCGACACATGGACCGGTTTTCCCGGTAATCCGTATTTGTA (site CCCTACACTTA)” to “CCCGCGTCATGGACCGGTTTTCCCGGTAATCCGTATTTGTC (site CCCGCGTCTGA)”, the “recombinant UMI read abundance (log10)” value rises from 0.0106 to 0.515.

Compared with “CCCGGTACATGGACCGGTTTTCCCGGTAATCCGTATTTGCA (site CCCGGTACTTG)”, “CCCGGTACATGGACCGGTTTTCCCGGTAATCCGTATTTGCA (site CCCGGTCCTTG)” is lower in “recombinant UMI read abundance (log10)” value: 0.751 for the first, 0 for the second.

“CCCGGTACATGGACCGGTTTTCCCGGTAATCCGTATTTGCA (site CCCGGTGCTTG)” and “CCCGGTACATGGACCGGTTTTCCCGGTAATCCGTATTTGCA (site CCCGGTTCTTG)” are the same in “recombinant UMI read abundance (log10)” value: 0 for the first, 0 for the second.

First: CCCGGTGCATGGACCGGTTTTCCCGGTAATCCGTATTTGAT (site CCAGGTGCTAT)
Second: CCCGGTGCATGGACCGGTTTTCCCGGTAATCCGTATTTGAT (site CCCGGTGCTAT)
The “recombinant UMI read abundance (log10)” value of the first is lower: 0.119 for the first, 0.907 for the second.

“CCCGGTGCATGGACCGGTTTTCCCGGTAATCCGTATTTGAT (site CCGGGTGCTAT)” and “CCCGGTGCATGGACCGGTTTTCCCGGTAATCCGTATTTGAT (site CCTGGTGCTAT)” are within 0.2 log units of each other in “recombinant UMI read abundance (log10)” value: 0.0111 for the first, 0.00284 for the second.

“CCCGGTGCATGGACCGGTTTTCCCGGTAATCCGTATTTGCA (site CCCGGTACTTG)” and “CCCGGTGCATGGACCGGTTTTCCCGGTAATCCGTATTTGCA (site CCCGGTCCTTG)” are within 0.2 log units of each other in “recombinant UMI read abundance (log10)” value: 0 for the first, 0.0126 for the second.

“CCCGGTGCATGGACCGGTTTTCCCGGTAATCCGTATTTGCA (site CCCGGTGCTTG)” and “CCCGGTGCATGGACCGGTTTTCCCGGTAATCCGTATTTGCA (site CCCGGTTCTTG)” are the same in “recombinant UMI read abundance (log10)” value: 0 for the first, 0 for the second.

First: CCCGTATCATGGACCGGTTTTCCCGGTAATCCGTATTTGTC (site CCCATATCTGA)
Second: CCCGTATCATGGACCGGTTTTCCCGGTAATCCGTATTTGTC (site CCCCTATCTGA)
The “recombinant UMI read abundance (log10)” value of the first is higher: 0.605 for the first, 0.0235 for the second.

Going from “CCCGTATCATGGACCGGTTTTCCCGGTAATCCGTATTTGTC (site CCCGTATCTGA)” to “CCCGTATCATGGACCGGTTTTCCCGGTAATCCGTATTTGTC (site CCCTTATCTGA)”, the “recombinant UMI read abundance (log10)” value falls from 1.83 to 0.

Compared with “CCCGTCCCATGGACCGGTTTTCCCGGTAATCCGTATTTGGA (site CCCGTCCCTTC)”, “CCCGTGACATGGACCGGTTTTCCCGGTAATCCGTATTTGAT (site CCCGTGACTAT)” is higher in “recombinant UMI read abundance (log10)” value: 0.00421 for the first, 1.05 for the second.

Going from “CCCGTTCCATGGACCGGTTTTCCCGGTAATCCGTATTTGGC (site CCCGTTCCTGC)” to “CCCGTTTCATGGACCGGTTTTCCCGGTAATCCGTATTTGAG (site CCCGTTTCTCT)”, the “recombinant UMI read abundance (log10)” value rises from 0 to 0.807.

Going from “CCCTACCCATGGACCGGTTTTCCCGGTAATCCGTATTTGCC (site CCCTAACCTGG)” to “CCCTACCCATGGACCGGTTTTCCCGGTAATCCGTATTTGCC (site CCCTACCCTGG)”, the “recombinant UMI read abundance (log10)” value rises from 0 to 0.541.

“CCCTACCCATGGACCGGTTTTCCCGGTAATCCGTATTTGCC (site CCCTAGCCTGG)” and “CCCTACCCATGGACCGGTTTTCCCGGTAATCCGTATTTGCC (site CCCTATCCTGG)” are the same in “recombinant UMI read abundance (log10)” value: 0 for the first, 0 for the second.

Going from “CCCTAGACATGGACCGGTTTTCCCGGTAATCCGTATTTGGG (site ACCTAGACTCC)” to “CCCTAGACATGGACCGGTTTTCCCGGTAATCCGTATTTGGG (site CCCTAGACTCC)”, the “recombinant UMI read abundance (log10)” value rises from 0.036 to 0.546.

“CCCTAGACATGGACCGGTTTTCCCGGTAATCCGTATTTGGG (site GCCTAGACTCC)” and “CCCTAGACATGGACCGGTTTTCCCGGTAATCCGTATTTGGG (site TCCTAGACTCC)” are within 0.2 log units of each other in “recombinant UMI read abundance (log10)” value: 0.0233 for the first, 0.0148 for the second.

“CCCTAGCCATGGACCGGTTTTCCCGGTAATCCGTATTTGCC (site ACCTAGCCTGG)” and “CCCTAGCCATGGACCGGTTTTCCCGGTAATCCGTATTTGCC (site CACTAGCCTGG)” are the same in “recombinant UMI read abundance (log10)” value: 0 for the first, 0 for the second.

“CCCTAGCCATGGACCGGTTTTCCCGGTAATCCGTATTTGCC (site CCATAGCCTGG)” and “CCCTAGCCATGGACCGGTTTTCCCGGTAATCCGTATTTGCC (site CCCAAGCCTGG)” are the same in “recombinant UMI read abundance (log10)” value: 0 for the first, 0 for the second.

“CCCTAGCCATGGACCGGTTTTCCCGGTAATCCGTATTTGCC (site CCCCAGCCTGG)” and “CCCTAGCCATGGACCGGTTTTCCCGGTAATCCGTATTTGCC (site CCCGAGCCTGG)” are the same in “recombinant UMI read abundance (log10)” value: 0 for the first, 0 for the second.

“CCCTAGCCATGGACCGGTTTTCCCGGTAATCCGTATTTGCC (site CCCTAACCTGG)” and “CCCTAGCCATGGACCGGTTTTCCCGGTAATCCGTATTTGCC (site CCCTACCCTGG)” are the same in “recombinant UMI read abundance (log10)” value: 0 for the first, 0 for the second.

“CCCTAGCCATGGACCGGTTTTCCCGGTAATCCGTATTTGCC (site CCCTAGACTGG)” and “CCCTAGCCATGGACCGGTTTTCCCGGTAATCCGTATTTGCC (site CCCTAGCCTAG)” are within 0.2 log units of each other in “recombinant UMI read abundance (log10)” value: 0 for the first, 0.00741 for the second.

“CCCTAGCCATGGACCGGTTTTCCCGGTAATCCGTATTTGCC (site CCCTAGCCTCG)” and “CCCTAGCCATGGACCGGTTTTCCCGGTAATCCGTATTTGCC (site CCCTAGCCTGA)” are within 0.2 log units of each other in “recombinant UMI read abundance (log10)” value: 0.00555 for the first, 0 for the second.

“CCCTAGCCATGGACCGGTTTTCCCGGTAATCCGTATTTGCC (site CCCTAGCCTGC)” and “CCCTAGCCATGGACCGGTTTTCCCGGTAATCCGTATTTGCC (site CCCTAGCCTGG)” are the same in “recombinant UMI read abundance (log10)” value: 0 for the first, 0 for the second.

“CCCTAGCCATGGACCGGTTTTCCCGGTAATCCGTATTTGCC (site CCCTAGCCTGT)” and “CCCTAGCCATGGACCGGTTTTCCCGGTAATCCGTATTTGCC (site CCCTAGCCTTG)” are within 0.2 log units of each other in “recombinant UMI read abundance (log10)” value: 0 for the first, 0.00543 for the second.

First: CCCTAGCCATGGACCGGTTTTCCCGGTAATCCGTATTTGCC (site CCCTAGGCTGG)
Second: CCCTAGCCATGGACCGGTTTTCCCGGTAATCCGTATTTGCC (site CCCTAGTCTGG)
The “recombinant UMI read abundance (log10)” value of the first is lower: 0 for the first, 1.15 for the second.

“CCCTAGCCATGGACCGGTTTTCCCGGTAATCCGTATTTGCC (site CCCTATCCTGG)” and “CCCTAGCCATGGACCGGTTTTCCCGGTAATCCGTATTTGCC (site CCCTCGCCTGG)” are the same in “recombinant UMI read abundance (log10)” value: 0 for the first, 0 for the second.

“CCCTAGCCATGGACCGGTTTTCCCGGTAATCCGTATTTGCC (site CCCTGGCCTGG)” and “CCCTAGCCATGGACCGGTTTTCCCGGTAATCCGTATTTGCC (site CCCTTGCCTGG)” are the same in “recombinant UMI read abundance (log10)” value: 0 for the first, 0 for the second.

“CCCTAGCCATGGACCGGTTTTCCCGGTAATCCGTATTTGCC (site CCGTAGCCTGG)” and “CCCTAGCCATGGACCGGTTTTCCCGGTAATCCGTATTTGCC (site CCTTAGCCTGG)” are the same in “recombinant UMI read abundance (log10)” value: 0 for the first, 0 for the second.

“CCCTAGCCATGGACCGGTTTTCCCGGTAATCCGTATTTGCC (site CGCTAGCCTGG)” and “CCCTAGCCATGGACCGGTTTTCCCGGTAATCCGTATTTGCC (site CTCTAGCCTGG)” are the same in “recombinant UMI read abundance (log10)” value: 0 for the first, 0 for the second.

“CCCTAGCCATGGACCGGTTTTCCCGGTAATCCGTATTTGCC (site GCCTAGCCTGG)” and “CCCTAGCCATGGACCGGTTTTCCCGGTAATCCGTATTTGCC (site TCCTAGCCTGG)” are the same in “recombinant UMI read abundance (log10)” value: 0 for the first, 0 for the second.

“CCCTAGGCATGGACCGGTTTTCCCGGTAATCCGTATTTGCC (site CCCTAGACTGG)” and “CCCTAGGCATGGACCGGTTTTCCCGGTAATCCGTATTTGCC (site CCCTAGCCTGG)” are the same in “recombinant UMI read abundance (log10)” value: 0 for the first, 0 for the second.

“CCCTAGGCATGGACCGGTTTTCCCGGTAATCCGTATTTGCC (site CCCTAGGCTGG)” and “CCCTAGGCATGGACCGGTTTTCCCGGTAATCCGTATTTGCC (site CCCTAGTCTGG)” are the same in “recombinant UMI read abundance (log10)” value: 0 for the first, 0 for the second.

First: CCCTAGTCATGGACCGGTTTTCCCGGTAATCCGTATTTGCC (site CCCTAGACTGG)
Second: CCCTAGTCATGGACCGGTTTTCCCGGTAATCCGTATTTGCC (site CCCTAGCCTGG)
The “recombinant UMI read abundance (log10)” value of the first is higher: 0.402 for the first, 0 for the second.

First: CCCTAGTCATGGACCGGTTTTCCCGGTAATCCGTATTTGCC (site CCCTAGGCTGG)
Second: CCCTAGTCATGGACCGGTTTTCCCGGTAATCCGTATTTGCC (site CCCTAGTCTGG)
The “recombinant UMI read abundance (log10)” value of the first is lower: 0 for the first, 1.23 for the second.

Compared with “CCCTCAACATGGACCGGTTTTCCCGGTAATCCGTATTTGCA (site CCCTCAACTTG)”, “CCCTCTACATGGACCGGTTTTCCCGGTAATCCGTATTTGCT (site CCCTCTACTAG)” is higher in “recombinant UMI read abundance (log10)” value: 0.377 for the first, 1.58 for the second.
